Measured values published in patent US10196454B2, “Anti-PMEL17 antibodies and immunoconjugates” (GENENTECH, INC., priority 2012, dated 2019).
Like-named read-outs stand apart in the source and are kept apart here.

Assays:
[1] = tested on: parental UACC-257X2.2 cells; test: In vitro cell proliferation (CellTiter-Glo, five days); format: cell-based; conditions: parental line
Method: (§1) In vitro cell proliferation of the cell lines in the presence of the immunoconjugates was assessed. Cells were plated at 1,500 cells per well in 50 μL of normal growth medium in 96-well clear-bottom plates. Twenty-four hours later, an additional 50 μL of culture medium with serial dilutions of immunoconjugates were added to triplicate wells. Five days later, cell survival was determined using CellTiter-Glo Luminescent Cell Viability Reagent (G7572, Promega Corporation, Madison, Wis.) using an EnVision 2101 Mutilabel Reader (Perkin-Elmer, Waltham, Mass.).

[2] = tested on: in vitro derived resistant UACC-257X2.2 cells; test: as above; format: cell-based; conditions: in vitro derived resistant line
Method: For resistance developed in vitro, UACC-257X2.2 cells were adapted to increasing concentrations of anti-ETBR-vc-MMAE in culture dishes over the course of two months.
as §1

[3] = tested on: in vivo derived resistant UACC-257X2.2 cells; test: as above; format: cell-based; conditions: in vivo derived resistant line
Method: Tumor #359 was harvested and the cells were dissociated for growth in vitro (referred to herein as in vivo-derived resistant UACC-257X2.2 cells).
as §1

[4] = tested on: human PMEL17; test: Monoclonal antibody epitope mapping with PMEL17 deletion mutants (immunoblot, FACS); format: binding; conditions: N-terminal deletions by immunoblot; C-terminal deletions in 293 cells by FACS
Method: All the constructs for epitope mapping were made by PCR amplification of each fragment and subcloning into either pRKtkneo vector with an N-terminal gD tag, or pRKtkneo vector with an N-terminal gD tag and a C-terminal GPI anchor. Transfections were performed using FuGene 6 (Roche Applied Science), and empty vector was used as control. Full-length human PMEL17 was subcloned into pRKtkneo vector with an N-terminal gD tag.
A signal sequence and a gD epitope tag were fused to the N-terminal sequence of a series of deletion mutants, which were then expressed in mammalian cells and the lysates analyzed by immuoblotting for reactivity with 17A9 or 77E6. The N-terminal deletions tested included Δ100, Δ255, Δ292, Δ315, Δ444, Δ515, and Δ567.
In addition, C-terminal deletions with an N-terminal gD tag and a C-terminal GPI anchor were transiently transfected into 293 cells and analyzed for antibody binding by FACS. The C-terminal deletions tested included PMEL1725-125, PMEL1725-105, PMEL1725-85, PMEL1725-65, and PMEL1725-45. Finally, a PMEL17 fragment comprising the region from amino acid 515 through the transmembrane domain, but lacking the cytoplasmic region (“Δ515-C”) and a PMEL17 fragment comprising just the cytoplasmic domain with an N-terminal gD tag and a C-terminal GPI anchor were analyzed by immuoblotting for reactivity with 77E6.

[5] = tested on: SK-MEL-23 melanoma cell line xenograft; test: SK-MEL-23 melanoma cell line xenograft; format: in vivo, mice; conditions: single IV injection, 6 mg/kg
Method: The efficacy of the anti-PMEL17 ADCs was investigated using an SK-MEL-23 melanoma cell line xenograft model. Female CRL Nu/Nu mice from Charles River Laboratories were inoculated subcutaneously in the dorsal right flank with five million SK-MEL-23 cells in HBSS with Matrigel. […] When tumor volumes reached ˜200 mm^3 (day 0), animals were randomized into groups of 10 each and administered a single IV injection of 2 or 6 mg/kg 17A9 ADC. MMAE conjugated to anti-GP120 antibody was used as a control. Tumor volumes were measured twice per week until study end. Tumor volumes were determined using digital calipers (Fred V. Fowler Company, Inc.) using the formula (L×w×W)/2. Tumor growth inhibition (% TGI) was calculated as the percentage of the area under the fitted curve (AUC) for the respective dose group per day in relation to the vehicle, such that % TGI=100×[1−(AUCtreatment/day)/(AUCvehicle/day)]. Curve fitting was applied to Loge transformed individual tumor volume data using a linear mixed-effects model using the R package nlme, version 3.1-96 in R v2.10.1.

[6] = tested on: vector control PC3 parental cell line; test: Inhibition of in vitro cell proliferation (CellTiter-GloII); format: cell-based; conditions: out to 10 μg/ml of ADC
[7] = tested on: PC3 cells stably expressing PMEL17; test: as above; format: cell-based
Method: Proliferation in the presence of 17A9 ADC was assessed using PMEL17+ melanoma cells and PC3 cells stably expressing PMEL17 plated at 2,000 per well in 50 μL of normal growth medium in 96-well clear-bottom plates (PerkinElmer). Twenty-four hours later, an additional 50 μL of culture medium with serial dilutions of 17A9 ADC were added to triplicate wells. Three or five days later, cell numbers were determined using CellTiter-GloII (Promega Corp.) and with an EnVision 2101 Mutilabel Reader (PerkinElmer).

[8] = tested on: normal human melanocytes; test: Toxicity of anti-PMEL17 ADC in normal melanocytes (CellTiter-GloII, five days); format: cell-based; conditions: versus SK-MEL-5 and SK-MEL-23, five days
Method: Finally, SK-MEL-5 and SK-MEL-23 melanoma cells, or normal human melanocytes, were incubated with serial dilutions of the 17A9 ADC and five days later cell numbers were determined using CellTiter-GloII.

[9] = linker-drug without antibody, read-out: EC50

Row | Molecule | EC50 [1, 9] [nM] | EC50 [2, 9] [nM] | EC50 [3, 9] [nM] | also measured
1 | MC-PNU-159682 | 0.18 | 0.15 | 0.133 | –
2 | MC-vc-PAB-PNU-159682 | 2 | 6.6 | 4.2 | –
3 | MC-vc-PAB-MMAE | 0.28 | 3.5 | 0.77 | –
4 | 14C10: anti-PMEL17 antibody that binds to the same deletion fragments as 17A9 (antibody, V domains shown) VH: QVTLKESGPGILQPSQTLSLTCSFSGFSLSTSAMGIGWIRQPSGKGLEWLAHIWWDDDKRYNPALKSRLTISKDTSRNQVFLKIASVDTADTATYFCARIDGIYDGSFYAMDYWGQGTSVTVSS VL: DIVLTQSPASLAVSLGQRATISCRASESVDSYGNSFMHWYQQKPGQPPKLLIYRASNLESGIPARFSGSGSRTDFTLTINPVEADDVANYYCQQSNEDYTFGGGTKLEIK | – | – | – | binding to PMEL17 deletion mutants [4]: binds to the same deletion fragments as 17A9
5 | 17A9 ADC (conjugate) VH: EVQLQQSGPELVKPGASMKISCKSSGYSFTRYTMNWVKQSHGKNLEWIGVINPYNGGTVYNQKFKGKATLTVDKSSSTAYMELLSLTSEDSAVYYCARTDYDGYAMDYWGQGTSVTVSS VL: DVQITQSPSYLAASPGETITINCRATKSISKYLAWYQEQPGKTNNLLIYSGSTLQSGIPSRFSGSGSGTDFTLTISSLEPEDFAMYYCQQHNEYPYTFGSGTKLEIK | – | – | – | effect on tumor growth [5]: retard tumor growth for several weeks; cell killing [6]: no killing; cell killing [7]: effectively killed; IC50 on normal melanocytes relative to melanoma cell lines [8]: ~100 fold
6 | anti-PMEL17-vc-MMAE: anti-PMEL17 ADC with protease-cleavable val-cit linker and MMAE (17A9 or ch17A9 with MC-vc-PAB-MMAE) (conjugate) VH: EVQLQQSGPELVKPGASMKISCKSSGYSFTRYTMNWVKQSHGKNLEWIGVINPYNGGTVYNQKFKGKATLTVDKSSSTAYMELLSLTSEDSAVYYCARTDYDGYAMDYWGQGTSVTVSS VL: DVQITQSPSYLAASPGETITINCRATKSISKYLAWYQEQPGKTNNLLIYSGSTLQSGIPSRFSGSGSGTDFTLTISSLEPEDFAMYYCQQHNEYPYTFGSGTKLEIK | – | – | – | EC50 ([1]; immunoconjugates): 0.033 µg/mL; EC50 ([2]; immunoconjugates): 0.764 µg/mL; EC50 ([3]; immunoconjugates): 0.119 µg/mL
